According to patent US20080051393A1, “Novel cannabinoids and methods of use” (Eastern Virginia Medical School, priority 2006, published 2008):
Entries after “also recorded” stand apart in the source; their conditions may differ.

Tests used:
[1] = system: retinal ganglionic cells (RGC); assay: Rat NMDA model: retinal flat mounts, RGC count; format: in vivo; details: NMDA model, retinal flat mounts
Experimental: (§1) Rat NMDA Model. To mimic glaucomatous damage to the retina without a potentially confounding effect on IOP, retinal damage was induced by NMDA in a rat model. Following baseline measurements, e.g. IOP, ERG, slit lamp, fundus photography, heart rate and blood pressure, N-methyl D-aspartate (NMDA, 2 μl of 10 mM) was injected intravitreally to induce RGC damage. […] For positive identification, a hand scanner was used each time the rat was examined. This was necessary since the examiners will be masked as to treatment group. Treatment groups consisted of either NMDA only (control), O-1812 (0.1%) or O-2545 (0.1%), O-1812 (0.1%)+SR-141716 (2 mM), O-2545 (0.1%)+SR-141716 (2 mM), O-1812 (0.1%)+SR-144258 (2 mM) and O-2545 (0.1%)+SR-144258 (2 mM). All experiments were conducted in accordance with the policies of the Institutional Animal Care and Use Committee and the ARVO policy on use of animals in experiments. A minimum of two baseline ERG measurements was recorded 1 wk prior, 1 wk and 2 wk post injection. At the end of each experiment, rats were sacrificed and their eyes were preserved for histological assessment of effects on the retina and optic nerve.
Histology. For retinal flat mounts, retinas were dissected from formalin fixed whole eyes, mounted on superfrost glass slides, stained with hematoxylin and eosin and digitally photographed. For analysis, the retina was divided into four quadrants. A minimum of five 50 μm^2 sections per quadrant were used to count cell number. The cell sections were selected to be equidistant from the optic cup for all quadrants. For optic nerve experiments, the optic nerve was dissected at the margin of the optic disk and embedded in cryo media. Sections of 10 μm thickness were cut and mounted on superfrost glass slides and stained with hematoxylin and eosin. The slides were digitally photographed.

[2] = system: IOP in a rat glaucoma model; assay: Combination therapy: IOP in a rat glaucoma model; format: in vivo, Sprague Dawley rats; details: 1.0% topical alone, 120 min
Excerpt: (§2) Rat Glaucoma Model. Compared to acute studies, a chronic rat model of glaucoma was generated. The rats were made glaucomatous by ligating three vortex veins (Hosseini, A. et al. (2006) Chronic topical administration of WIN-55-212-2 maintinas a reduction in IOP in a rat glaucoma model without adverse effects. Exp. Eye Res. 82(5):753-9). More specifically, ocular hypertension was induced in Sprague-Dawley rats by ligating 3 of 4 episcleral veins of the right eye using 9.0 nylon sutures under anesthesia with 3 mg/Kg acepromazine and 20 mg/Kg ketamine. Within 6 wk, IOP increased by at least 5 mm Hg in the operated eye. This intervention produced at least a 30% increase in IOP in the operated eye and lasted for up to 60 weeks. During this time, a 30% loss of retinal function was documented by ERG. […] Thus, the model accurately mimics the progressive damage that occurs in patients with glaucoma.
(§3) Measurements of Intraocular Pressure. IOP elevation was measured under mild sedation using a calibrated Goldmann tonometer modified for rats. Three determinations were averaged for each eye. To account for diurnal variation, all IOP's were measured between 11 am and 1 pm during the daily trough period.
Combination Therapy. Since cannabinoids and timolol, which are both known to reduce IOP, have different mechanisms of action, there is potential for a synergistic effect. The combination of timolol and a synthetic cannabinoid (WIN55 212-2, O-1812, or O-2545) to reduce IOP in a chronic rat model of ocular hypertension was examined. Surgical ligation of three of the four episcleral veins in one eye of Sprague Dawley rats caused a long lasting (>44 week) increase in IOP. IOP was measured by Goldmann tonometry at baseline (−30), 0, 30, 60 and 120 min, as was heart rate and blood pressure. For combination therapy, after baseline IOP measurement, timolol 0.5% was applied topically followed 30 min later by WIN55 212-2 1.0%, O-1812 1.0%, or O-2545 1.0%. In another experiment, O-1812 1.0% and O-2545 1.0% were administered simultaneously. An analysis for ocular irritation was performed by slit lamp examination (SLE) at baseline and 150 min.

[3] = system: optic nerve; assay: Rat NMDA model: optic nerve histology; format: in vivo
Experimental: as §1
Histology. For retinal flat mounts, retinas were dissected from formalin fixed whole eyes, mounted on superfrost glass slides, stained with hematoxylin and eosin and digitally photographed. […]

[4] = system: Rat NMDA Model; assay: Rat NMDA model: electroretinogram a-wave; format: in vivo; details: for Effect of CB1 antagonist SR-141716 on the action of the drug (ERG a-wave): drug 0.1% + SR-141716 2 mM
Experimental: as §1
Electroretinogram. In normal retina, full field electroretinography (ERG) stimulates both rods (a-waves) and cones (b-waves). A decrease in their amplitudes indicates retinal functional damage. Scotopic ERG changes were measured in rats that were dark-adapted for at least 4 hours. Eyes were then dilated with 1% atropine after which 0.5% proparacaine and methylcellulose gel (GPS 2.5%) was applied topically. Custom made AgCl electrodes were placed on the apex of the cornea. Stimuli consisted of 10-μsec flashes of unattenuated white light generated by a Ganzfeld bowl photo stimulator. Data from each eye were recorded separately with a driver amplifier and acquired digitally via DASYLab. The contralateral normal eye served as an age matched negative control, e.g. response in a normal, undamaged eye. Differences in amplitude of the a- and b-waves between the operated eye and the contralateral eye were calculated and analyzed by ANOVA and t-test.

[5] = system: IOP in a rat glaucoma model; assay: IOP after topical application in chronic rat glaucoma model; format: in vivo, Sprague-Dawley rats; details: for Effect on IOP compared to baseline or vehicle: all concentrations tested
Excerpt: as §2, §3
Therapeutic Regimen. For IOP Measurements (Topical application) Baseline IOP, heart rate, blood pressure and normal ocular anatomy were documented prior to drug administration. The drugs WIN 55-212-2 (0.1%, 1.0%), O-1812 (0.01%, 0.1%, 1.0%), O-2545 (0.1%, 1.0%) were all dissolved in Tocrisolve™ (vehicle). IOP, heart rate, and blood pressure were measured prior to and after 30, 60 and 120 min after topical administration. Contralateral eyes served as vehicle treated controls.

[6] = Ocular toxicity by slit lamp, MacDonald-Shadduck scoring; format: in vivo, rats; details: topical
Experimental: Slit Lamp Biomicroscopy/Digital Photography. Ocular toxicity was measured using slit lamp examination and performed using a modified MacDonald-Shadduck semi-quantitative scale for ocular irritation (McDonald, T. O. and Shadduck, J. A. (1987) Eye irriation. In Dermatotoxicology. 3rd Ed. Mazulli and Maibach. Pp 641-696. Washington, DC: Hemisphere). All eyes were examined by a slit lamp fitted with a color digital camera for digital photography of conjunctiva, cornea, and anterior camber. Images were stored and analyzed using a digital video system (Lombart Instruments DVS System). At baseline and following drug administration, eyes were examined for conjunctival congestion, conjunctival discharge, corneal edema, aqueous flare, fibrin, and iris congestion (Samudre, S. S. et al. (2004) Comparison of Topical Steroids for Acute Anterior Uveitis. J. Ocul. Pharmacol. Ther. 20 (6):533-547). Knowledgeable, masked observers rated each factor on a semi-quantitative four point scale where zero was coded normal, 1=minimal, 2=moderate and 3=severe involvement. Results were compared to the normal baseline evaluation performed before treatment and also with the untreated contralateral eye.

[7] = Corneal thickness by in vivo confocal microscopy; design: species or system rats; details: 1.0% treated eye (OD) vs contralateral control (OS)
Experimental: Confocal Microscopy. Repeated noninvasive in vivo visualization of cornea and anterior segments for the presence, location and number of inflammatory cells, as well as fibrin, hyper-refractile bodies and changes in epithelial, stromal and endothelial cell morphology was performed by confocal microscopy. Prior to applanation, rats were sedated and 0.5% proparacaine was applied topically. Data was analyzed using the Metamorph imaging system (Universal Imaging, Downingtown, Pa.).

[8] = system: peripheral retinal ganglion cell; details: cited from earlier work

| SMILES | Preservation of the number of RGCs [1] | IOP at 120 min (% Baseline) [2] | Protection of optic nerve against NMDA induced damage [3] | Effect of CB1 antagonist SR-141716 on the action of the drug (ERG a-wave) [4] | IOP after 60 min (% of Baseline) ([5]; 0.01% topical, 60 min) | IOP after 60 min (% of Baseline) ([5]; 0.10% topical, 60 min) | IOP after 60 min (% of Baseline) ([5]; 1.0% topical, 60 min) | Effect on IOP compared to baseline or vehicle ([5]; topical) | Ocular toxicity / signs of ocular inflammation [6] | Time for which significant IOP reduction was maintained ([5]; 1.0% topical) | Effect on IOP at 30 min ([5]; 1.0% topical) | other results |
| --- | --- | --- | --- | --- | --- | --- | --- | --- | --- | --- | --- | --- |
| C[C@H](CO)NC(=O)CCC/C=C\C/C=C\C/C=C\C/C=C\C(C)(C)CCCCC#N [Compound O-1812] | preserved the number of RGCs | 62.0 ± 0.5 % Baseline | prevented much of the NMDA induced damage | effectively blocked | 81.9 ± 2.7 % of Baseline | 78.3 ± 3.1 % of Baseline | 61.9 ± 3.9 % of Baseline | effective; also recorded: significantly reduced IOP | non-toxic | – | – | RGCs preserved [1]: up to 83%; Retinal function, A-wave ERG (percentage of the contralateral normal eye) ([4]; NMDA intravitreal, drug 0.1%): more effectively preserved retinal function; Effect of CB2 antagonist SR-144258 on the action of the drug (ERG a-wave) ([4]; drug 0.1% + SR-144258 2 mM): no effect; Effect on IOP ([5]; 0.01% topical): significantly reduced IOP; Time for which the IOP decrease was maintained ([5]; 0.01% topical): ≤ 60 min; Relative efficacy in IOP reduction ([5]; 1.0% topical): most efficacious; Onset of IOP lowering action ([5]; topical): most rapid onset |
| CC1=CC[C@@H]2[C@@H](C1)c1c(O)cc(C(C)(C)CCCCn3ccnc3)cc1OC2(C)C [Compound O-2545] | preserved the number of RGCs | 65.5 ± 0.8 % Baseline | prevented much of the NMDA induced damage | effectively blocked | – | 77.8 ± 2.8 % of Baseline | 76.4 ± 2.8 % of Baseline | – | – | up to 120 min | significantly reduced IOP | Time for which significant IOP reduction was maintained ([5]; 0.1% topical): up to 120 min; Effect on IOP at 30 min ([5]; 0.1% topical): significantly reduced IOP; Duration of IOP lowering action ([5]; topical): longest duration of action |
| Cc1c(C(=O)c2cccc3ccccc23)c2cccc3c2n1[C@H](CN1CCOCC1)CO3 [WIN 55-212-2, reference compound] | – | 48.8 ± 2.8 % Baseline | – | – | 83.1 ± 5.5 % of Baseline | – | 58.3 ± 5.6 % of Baseline | effective | non-toxic | up to 120 min | significantly reduced IOP | Corneal thickness [7]: remained unchanged; Effect on IOP compared to vehicle or baseline ([5]; 0.1% topical): not significantly different from either vehicle or baseline; Effect on IOP at 60 min ([5]; 1.0% topical, 60 min): significantly reduced |
| N=C(N)NN [aminoguanidine] | – | – | – | – | – | – | – | – | – | – | – | Less peripheral retinal ganglion cell loss compared to untreated rats [8]: 26% |
